This passage reports carcinogen call results from PubChem BioAssay AID1259411 (Chemical Carcinogenesis Research Information System (CCRIS), 2018).

Active and inactive are the calls of the source. The rule behind the calls is not given here.

This series deals with rodent carcinogenicity bioassays, tumor incidence. The experiment in a line: CCRIS carcinogenicity studies. In short, it runs like this: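 Archive of carcinogenicity, mutagenicity, tumor promotion and tumor inhibition results drawn from journals, NCI reports and other sources, expert-reviewed; covers 1985-2011 and is no longer updated.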
[1] abbreviates: Species: HUMAN, Route: ORAL, Tumor Site: Type of Lesion: LIVER.

As for `C[C@]12C/C(=C/O)C(=O)C[C@@H]1CC[C@@H]1[C@@H]2CC[C@@]2(C)[C@H]1CC[C@]2(C)O`, the carcinogen call is, setting by setting: under setting [1], “active; positive”; (Species: RAT, Strain/Sex: F344/N/FEMALE, Route: GAVAGE, Dose: 0, 3, 30, 100 MG/KG IN 0.5% METHYLCELLULOSE FOR 104 WK (STUDY DURATION: 104 WK), Dose: 0, 3, 30, 100 MG/KG IN 0.5% METHYLCELLULOSE FOR 104 WK (STUDY DURATION: 104 WK), Tumor Site: Type of Lesion: LIVER: HEPATOCELLULAR ADENOMA, HEPATOCELLULAR ADENOMA OR CARCINOMA, LUNG: ALVEOLAR/BRONCHIOLAR ADENOMA, ALVEOLAR/BRONCHI) “active; positive”; (Species: RAT, Strain/Sex: F344/N/MALE, Route: GAVAGE, Dose: 0, 3, 30, 150 MG/KG IN 0.5% METHYLCELLULOSE FOR 104 WK (STUDY DURATION: 104 WK), Dose: 0, 3, 30, 150 MG/KG IN 0.5% METHYLCELLULOSE FOR 104 WK (STUDY DURATION: 104 WK), Tumor Site: Type of Lesion: SKIN (SUBCUTANEOUS TISSUE): FIBROMA, FIBROMA OR FIBROSARCOMA, ADRENAL GLAND: BENIGN PHEOCHROMOCYTOMA, BENIGN PHEOCHROMOC) “equivocal”.

As for `O=C(O)CCC(=O)O`, the carcinogen call reads like this: (Species: RAT, Strain/Sex: F344/FEMALE, Route: ORAL, Dose: 0, 1, 2% IN DRINKING WATER FOR 2 YR (STUDY DURATION: 2 YR), Dose: 0, 1, 2% IN DRINKING WATER FOR 2 YR (STUDY DURATION: 2 YR)) “inactive; negative”; (Species: RAT, Strain/Sex: F344/MALE, Route: ORAL, Dose: 0, 1, 2% IN DRINKING WATER FOR 2 YR (STUDY DURATION: 2 YR), Dose: 0, 1, 2% IN DRINKING WATER FOR 2 YR (STUDY DURATION: 2 YR)) “inactive; negative”.

For the compound `CBr`, the carcinogen call is “inactive; negative” (Species: DOG, Strain/Sex: BEAGLE/FEMALE, Route: ORAL, Dose: 0, 0.07, 0.12, 0.27 MG/KG/D IN DIET FOR 1 YR (STUDY DURATION: 1 YR), Dose: 0, 0.07, 0.12, 0.27 MG/KG/D IN DIET FOR 1 YR (STUDY DURATION: 1 YR)); “inactive; negative” (Species: DOG, Strain/Sex: BEAGLE/MALE, Route: ORAL, Dose: 0, 0.06, 0.13, 0.28 MG/KG/D IN DIET FOR 1 YR (STUDY DURATION: 1 YR), Dose: 0, 0.06, 0.13, 0.28 MG/KG/D IN DIET FOR 1 YR (STUDY DURATION: 1 YR)); “inactive; negative” (Species: MOUSE, Strain/Sex: B6C3F1/FEMALE, Route: INHALATION, Dose: 0, 10, 33, 100 PPM 6 HR/D 5 D/WK FOR UP TO 103 WK, DOSING IN 100 PPM GROUP DISCONTINUED AFTER 20 WK (STUDY DURATION: 104, Dose: 0, 10, 33, 100 PPM 6 HR/D 5 D/WK FOR UP TO 103 WK, DOSING IN 100 PPM GROUP DISCONTINUED AFTER 20 WK (STUDY DURATION: 104); “inactive; negative” (Species: MOUSE, Strain/Sex: B6C3F1/MALE, Route: INHALATION, Dose: 0, 10, 33, 100 PPM 6 HR/D 5 D/WK FOR UP TO 103 WK, DOSING IN 100 PPM GROUP DISCONTINUED AFTER 20 WK (STUDY DURATION: 104, Dose: 0, 10, 33, 100 PPM 6 HR/D 5 D/WK FOR UP TO 103 WK, DOSING IN 100 PPM GROUP DISCONTINUED AFTER 20 WK (STUDY DURATION: 104); “inactive; negative” (Species: MOUSE, Strain/Sex: BDF1/FEMALE, Route: INHALATION, Dose: 0, 4, 16, 64 PPM 6 HR/D 5 D/WK FOR 104 WK (STUDY DURATION: 105 WK), Dose: 0, 4, 16, 64 PPM 6 HR/D 5 D/WK FOR 104 WK (STUDY DURATION: 105 WK)); “inactive; negative” (Species: MOUSE, Strain/Sex: BDF1/MALE, Route: INHALATION, Dose: 0, 4, 16, 64 PPM 6 HR/D 5 D/WK FOR 104 WK (STUDY DURATION: 105 WK), Dose: 0, 4, 16, 64 PPM 6 HR/D 5 D/WK FOR 104 WK (STUDY DURATION: 105 WK)). The carcinogen call was “inactive; negative” (Species: RAT, Strain/Sex: F344/FEMALE, Route: INHALATION, Dose: 0, 4, 20, 100 PPM 6 HR/D 5 D/WK FOR 104 WK (STUDY DURATION: 105 WK), Dose: 0, 4, 20, 100 PPM 6 HR/D 5 D/WK FOR 104 WK (STUDY DURATION: 105 WK)); “inactive; negative” (Species: RAT, Strain/Sex: F344/FEMALE, Route: ORAL); “inactive; negative” (Species: RAT, Strain/Sex: F344/MALE, Route: INHALATION, Dose: 0, 4, 20, 100 PPM 6 HR/D 5 D/WK FOR 104 WK (STUDY DURATION: 105 WK), Dose: 0, 4, 20, 100 PPM 6 HR/D 5 D/WK FOR 104 WK (STUDY DURATION: 105 WK)); “inactive; negative” (Species: RAT, Strain/Sex: F344/MALE, Route: ORAL); “active; positive” (Species: RAT, Strain/Sex: WISTAR/FEMALE, Route: GAVAGE, Dose: 0.4, 2, 10, 50 MG/KG IN ARACHIS OIL 5/WK FOR 13 WK, Dose: 0.4, 2, 10, 50 MG/KG IN ARACHIS OIL 5/WK FOR 13 WK, Tumor Site: Type of Lesion: FORESTOMACH: CARCINOMA); “inactive; negative” (Species: RAT, Strain/Sex: WISTAR/FEMALE, Route: INHALATION, Dose: 0, 3, 30, 90 PPM 6 HR/D 5 D/WK FOR 29 MO (STUDY DURATION: 29 MO), Dose: 0, 3, 30, 90 PPM 6 HR/D 5 D/WK FOR 29 MO (STUDY DURATION: 29 MO)). Moreover, the carcinogen call (Species: RAT, Strain/Sex: WISTAR/MALE, Route: GAVAGE, Dose: 0.4, 2, 10, 50 MG/KG IN ARACHIS OIL 5/WK FOR 13 WK, Dose: 0.4, 2, 10, 50 MG/KG IN ARACHIS OIL 5/WK FOR 13 WK, Tumor Site: Type of Lesion: FORESTOMACH: PAPILLOMA, CARCINOMA) is “active; positive” and the carcinogen call (Species: RAT, Strain/Sex: WISTAR/MALE, Route: INHALATION, Dose: 0, 3, 30, 90 PPM 6 HR/D 5 D/WK FOR 29 MO (STUDY DURATION: 29 MO), Dose: 0, 3, 30, 90 PPM 6 HR/D 5 D/WK FOR 29 MO (STUDY DURATION: 29 MO)) was “inactive; negative”.

Consider `COc1cc2c(c3oc(=O)c4c(c13)CCC4=O)[C@@H]1CCO[C@@H]1O2`, for which the carcinogen call under setting [1] is “active; positive” and the carcinogen call (Species: RAT, Route: ORAL, Tumor Site: Type of Lesion: LIVER) was “active; positive”.

Turning to `CCN(C)N=O`, the carcinogen call is, setting by setting: (Species: HAMSTER, Strain/Sex: SYRIAN/MALE, Route: GAVAGE, Dose: 0, 1.8 MG/KG 1/WK FOR 23-30 WK (TOTAL DOSE: 0; 0.53 MMOL) (STUDY DURATION: LIFETIME), Dose: 0, 1.8 MG/KG 1/WK FOR 23-30 WK (TOTAL DOSE: 0; 0.53 MMOL) (STUDY DURATION: LIFETIME), Tumor Site: Type of Lesion: LIVER: HEPATOCELLULAR CARCINOMA, HEPATOCELLULAR ADENOMA, CHOLANGIOCARCINOMA, CHOLANGIOMA, HEMANGIOSARCOMA, NASAL MUCOSA:) “active; positive”; (Species: RAT, Strain/Sex: F344/FEMALE, Route: GAVAGE, Dose: 0, 4.6 MG/WK FOR A TOTAL DOSE OF 1.4 MMOL (STUDY DURATION: 40 WK), Tumor Site: Type of Lesion: LIVER: TUMOR, LUNG: TUMOR) “active; positive”; (Species: RAT, Strain/Sex: F344/FEMALE, Route: INTRAVESICULAR, Dose: 0, 2.3 MG IN 0.2 ML ETHANOL: DEIONIZED WATER (1:3) 2/WK FOR 30 WK (TOTAL DOSE 1.6 MMOL) (STUDY DURATION: LIFESPAN), Tumor Site: Type of Lesion: LIVER: HEMANGIOSARCOMA, LUNG: TUMOR, KIDNEY: TUMOR, Tumor Site: Type of Lesion: LIVER: HEMANGIOSARCOMA, LUNG: TUMOR, KIDNEY: TUMOR) “active; positive”; (Species: RAT, Strain/Sex: F344/MALE, Route: GAVAGE, Dose: 0, 4.6 MG/WK FOR A TOTAL DOSE OF 1.6 MMOL (STUDY DURATION: 60 WK), Tumor Site: Type of Lesion: LIVER: TUMOR, LUNG: TUMOR, NASAL MUCOSA: TUMOR, Tumor Site: Type of Lesion: LIVER: TUMOR, LUNG: TUMOR, NASAL MUCOSA: TUMOR) “active; positive”.

Regarding `[O]=[Al][O][Si](=O)O[Si](=O)[O][Al]=[O]`, the carcinogen call (Species: Rat, Strain/Sex: Wistar/Female (48/group), Route: Intratracheal, Dose: 6 mg instillations of 0.01-0.03 um particles given as 10 or 20 doses wk 26, study duration 115 or 121 wk or no treatment, Tumor Site: Type of Lesion: Lung: Bronchiolo-alveolar adenoma (12/48 and 11/47 in experimental animals vs 1/46 control animals), bronchiolo-alveolar) is “active; positive”.
